Measured values published in US8129371B2, “Thienopyrimidine and pyrazolopyrimidine compounds and their use as mTOR kinase and PI3 kinase inhibitors” (Wyeth LLC, priority 2007, dated 2012).
Like-named read-outs stand apart in the source and are kept apart here.

How the values were obtained:
breast line MDA468 = assay: In vitro cell culture growth assay (MTS), MDA468; assay type: cell-based; conditions: Homo sapiens, 72 h, MDA468 cells, three days after drug treatment
Method in brief: (§1)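 Viable cell density is assessed three days after inhibitor addition via MTS conversion, normalised to vehicle-treated cells.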

prostate line LNCap = assay: In vitro cell culture growth assay (MTS), LNCap; assay type: cell-based; conditions: Homo sapiens, 72 h, LNCap cells, three days after drug treatment
Method in brief: as §1

PI3K [1] = target: T1, PI3K (Homo sapiens, UniProt P42336); assay: Fluorescence polarization assay for PI3K; assay type: biochemical
T1 construct: PI3 Kinase α IC50; other: PI3 Kinase α; other: PI3 Kinase α isoform, fluorescence polarization
Method in brief: (§2)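 PI3K was preincubated with compound (final DMSO 1%), and the reaction was started with PIP2/ATP substrate and run 30–60 min. It was stopped with a detector mix giving 10 nM red probe and 70 nM GST-GRP.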

PI3K [2] = target: T2, PI3K (Homo sapiens, UniProt P48736); assay: Fluorescence polarization assay for PI3K; assay type: biochemical
T2 construct: PI3 Kinase γ IC50; other: PI3 Kinase γ; other: PI3 Kinase γ isoform, fluorescence polarization
Method in brief: as §2

Human mTOR (FLAG-TOR) = target: T3, Human mTOR (FLAG-TOR) (Homo sapiens, UniProt P42345); assay: Human mTOR kinase assay with purified enzyme, DELFIA format; assay type: biochemical
T3 construct: FLAG
Method in brief: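 Purified FLAG-mTOR in HEPES pH 7.4 buffer with 10 mM MnCl2 was preincubated with inhibitor and reacted 2 h at room temperature with His6-S6K substrate, then stopped with EDTA/EGTA. Phospho-T389 S6K detected by DELFIA with Eu-labelled antibody (40 ng/mL) after plate capture; inhibition computed from signal.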

[3] = PI3 Kinase α, read-out: PI3 Kinase α IC50
[4] = PI3 Kinase γ, read-out: PI3 Kinase γ IC50

T1 sequence (P42336 whole entry, canonical isoform): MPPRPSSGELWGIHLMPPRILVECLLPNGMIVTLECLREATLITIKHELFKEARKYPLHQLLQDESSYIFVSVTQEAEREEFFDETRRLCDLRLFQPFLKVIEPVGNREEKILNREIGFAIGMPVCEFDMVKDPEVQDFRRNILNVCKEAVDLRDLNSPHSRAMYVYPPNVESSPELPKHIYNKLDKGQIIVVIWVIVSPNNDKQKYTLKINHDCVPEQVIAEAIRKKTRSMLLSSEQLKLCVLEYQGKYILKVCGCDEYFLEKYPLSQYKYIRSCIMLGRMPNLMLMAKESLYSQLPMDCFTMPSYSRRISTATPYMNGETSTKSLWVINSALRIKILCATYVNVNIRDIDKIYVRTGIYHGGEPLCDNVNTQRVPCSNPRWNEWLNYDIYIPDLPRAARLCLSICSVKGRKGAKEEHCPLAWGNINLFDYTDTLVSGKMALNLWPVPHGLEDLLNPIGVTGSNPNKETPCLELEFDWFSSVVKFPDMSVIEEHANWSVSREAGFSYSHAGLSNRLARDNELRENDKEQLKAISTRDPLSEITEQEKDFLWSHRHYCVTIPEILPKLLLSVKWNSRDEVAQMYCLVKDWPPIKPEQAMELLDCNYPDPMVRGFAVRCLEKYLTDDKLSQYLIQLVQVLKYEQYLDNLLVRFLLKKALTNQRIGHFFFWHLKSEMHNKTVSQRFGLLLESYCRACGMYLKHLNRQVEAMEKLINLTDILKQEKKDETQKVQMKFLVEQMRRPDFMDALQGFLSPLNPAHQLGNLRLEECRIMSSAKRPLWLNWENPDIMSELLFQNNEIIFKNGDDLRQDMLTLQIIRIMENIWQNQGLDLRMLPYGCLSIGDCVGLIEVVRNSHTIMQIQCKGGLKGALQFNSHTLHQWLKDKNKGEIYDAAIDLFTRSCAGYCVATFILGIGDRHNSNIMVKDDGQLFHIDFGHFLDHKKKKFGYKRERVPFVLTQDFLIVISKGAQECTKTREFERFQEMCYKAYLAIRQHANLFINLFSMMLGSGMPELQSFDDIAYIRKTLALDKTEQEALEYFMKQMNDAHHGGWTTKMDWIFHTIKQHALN
T2 sequence (P48736 whole entry, canonical isoform): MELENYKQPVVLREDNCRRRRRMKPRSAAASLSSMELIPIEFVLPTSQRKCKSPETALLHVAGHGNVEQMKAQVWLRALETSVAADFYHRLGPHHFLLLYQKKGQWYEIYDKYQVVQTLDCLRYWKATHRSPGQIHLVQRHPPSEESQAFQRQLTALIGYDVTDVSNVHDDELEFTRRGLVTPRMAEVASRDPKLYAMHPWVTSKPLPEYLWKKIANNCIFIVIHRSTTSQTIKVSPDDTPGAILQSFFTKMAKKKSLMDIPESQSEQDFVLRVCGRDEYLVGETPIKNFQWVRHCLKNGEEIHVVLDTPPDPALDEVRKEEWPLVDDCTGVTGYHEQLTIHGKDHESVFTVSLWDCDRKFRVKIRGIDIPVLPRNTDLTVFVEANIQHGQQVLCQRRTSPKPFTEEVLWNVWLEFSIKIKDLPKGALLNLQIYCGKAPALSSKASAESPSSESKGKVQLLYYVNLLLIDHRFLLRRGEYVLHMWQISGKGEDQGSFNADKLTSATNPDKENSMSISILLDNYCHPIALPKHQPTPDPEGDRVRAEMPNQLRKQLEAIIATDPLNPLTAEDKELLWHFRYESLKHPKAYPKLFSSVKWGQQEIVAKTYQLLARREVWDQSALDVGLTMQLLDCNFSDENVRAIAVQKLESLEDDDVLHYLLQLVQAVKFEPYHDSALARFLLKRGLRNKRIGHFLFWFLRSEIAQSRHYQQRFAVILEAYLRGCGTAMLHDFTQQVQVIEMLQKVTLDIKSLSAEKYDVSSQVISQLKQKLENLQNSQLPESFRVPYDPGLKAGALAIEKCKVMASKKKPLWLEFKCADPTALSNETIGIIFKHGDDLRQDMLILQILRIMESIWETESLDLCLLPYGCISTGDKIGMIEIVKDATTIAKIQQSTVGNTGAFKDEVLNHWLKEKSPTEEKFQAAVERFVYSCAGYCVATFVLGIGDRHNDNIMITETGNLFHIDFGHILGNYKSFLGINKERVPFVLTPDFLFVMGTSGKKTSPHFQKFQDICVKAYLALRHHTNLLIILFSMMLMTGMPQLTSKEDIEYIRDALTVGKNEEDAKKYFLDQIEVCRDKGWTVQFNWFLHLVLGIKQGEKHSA

SMILES | IC50 (prostate line LNCap; LNCaP) | IC50 (PI3K [1]; [3]) | IC50 (PI3K [2]; [4]) | IC50 (Human mTOR (FLAG-TOR)) | IC50 (breast line MDA468) | IC50 (prostate line LNCap) | IC50 (PI3K [1]) | IC50 (PI3K [2])
Nc1cccc(COC(=O)Nc2ccc(-c3nc(N4CC5CCC(C4)O5)c4cnn(CC(F)(F)F)c4n3)cc2)c1 [Example 254, 3-aminobenzyl {4-[4-(8-oxa-3-azabicyclo[3.2.1]oct-3-yl)-1-(2,2,2-trifluoroethyl)-1H-pyrazolo[3,4-d]pyrimidin-6-yl]phenyl}carbamate] | 6200 nM | 9650 nM | 12 µM | 1620 nM | 200 nM | – | – | –
O=C(Nc1ccc(-c2nc(N3CC4CCC(C3)O4)c3cnn(CC(F)(F)F)c3n2)cc1)Nc1cccc(CO)c1 [Example 255, 1-[3-(hydroxymethyl)phenyl]-3-{4-[4-(8-oxa-3-azabicyclo[3.2.1]oct-3-yl)-1-(2,2,2-trifluoroethyl)-1H-pyrazolo[3,4-d]pyrimidin-6-yl]phenyl}urea] | 6 nM | 105 nM | 0.73 µM | 0.595 nM | 30 nM | – | – | –
CN(C)c1cccc(OC(=O)Nc2ccc(-c3nc(N4CC5CCC(C4)O5)c4cnn(CC(F)(F)F)c4n3)cc2)c1 [Example 256, 3-(dimethylamino)phenyl {4-[4-(8-oxa-3-azabicyclo[3.2.1]oct-3-yl)-1-(2,2,2-trifluoroethyl)-1H-pyrazolo[3,4-d]pyrimidin-6-yl]phenyl}carbamate] | – | – | – | 195 nM | 18000 nM | 3500 nM | > 10000 nM | > 10 µM
CN(C)c1cccc(NC(=O)Nc2ccc(-c3nc(N4CC5CCC(C4)O5)c4cnn(CC(F)(F)F)c4n3)cc2)c1 [Example 257, 1-[3-(dimethylamino)phenyl]-3-{4-[4-(8-oxa-3-azabicyclo[3.2.1]oct-3-yl)-1-(2,2,2-trifluoroethyl)-1H-pyrazolo[3,4-d]pyrimidin-6-yl]phenyl}urea] | < 1 nM | 344 nM | 4.25 µM | 1.8 nM | 3 nM | – | – | –

More lines, main results first:

IC50 (prostate line LNCap; LNCaP) | IC50 (PI3K [1]; [3]) | IC50 (PI3K [2]; [4]) | IC50 (Human mTOR (FLAG-TOR)) | SMILES | IC50 (breast line MDA468) | IC50 (prostate line LNCap) | IC50 (PI3K [1]) | IC50 (PI3K [2])
< 1 nM | 98 nM | 0.44 µM | 0.111 nM | O=C(Nc1ccc(CCO)cc1)Nc1ccc(-c2nc(N3CC4CCC(C3)O4)c3cnn(CC(F)(F)F)c3n2)cc1 [Example 260, 1-[4-(2-hydroxyethyl)phenyl]-3-{4-[4-(8-oxa-3-azabicyclo[3.2.1]oct-3-yl)-1-(2,2,2-trifluoroethyl)-1H-pyrazolo[3,4-d]pyrimidin-6-yl]phenyl}urea] | < 1 nM | – | – | –
1 nM | 191 nM | 1.36 µM | 0.515 nM | CN1CCN(c2ccc(NC(=O)Nc3ccc(-c4nc(N5CC6CCC(C5)O6)c5cnn(CC(F)(F)F)c5n4)cc3)cn2)CC1 [Example 262, 1-[6-(4-methylpiperazin-1-yl)pyridin-3-yl]-3-{4-[4-(8-oxa-3-azabicyclo[3.2.1]oct-3-yl)-1-(2,2,2-trifluoroethyl)-1H-pyrazolo[3,4-d]pyrimidin-6-yl]phenyl}urea] | 5 nM | – | – | –
< 1 nM | 147 nM | 10.4 µM | 0.215 nM | O=C(Nc1ccc(OCCO)cc1)Nc1ccc(-c2nc(N3CC4CCC(C3)O4)c3cnn(CC(F)(F)F)c3n2)cc1 [Example 263, 1-[4-(2-hydroxyethoxy)phenyl]-3-{4-[4-(8-oxa-3-azabicyclo[3.2.1]oct-3-yl)-1-(2,2,2-trifluoroethyl)-1H-pyrazolo[3,4-d]pyrimidin-6-yl]phenyl}urea] | 5 nM | – | – | –
38 nM | 1690 nM | 8.84 µM | 2.9 nM | O=C(Nc1ccc(-c2nc(N3CC4CCC(C3)O4)c3cnn(C4CCN(Cc5ccccc5)CC4)c3n2)cc1)OCCO [Example 264, 2-hydroxyethyl {4-[1-(1-benzylpiperidin-4-yl)-4-(8-oxa-3-azabicyclo[3.2.1]oct-3-yl)-1H-pyrazolo[3,4-d]pyrimidin-6-yl]phenyl}carbamate] | 700 nM | – | – | –
